From patent US4232037A, “2,6-Dialkoxybenzamides, intermediates, pharamaceutical compositions and methods for treatment of psychotic disorders” (priority 1978, dated 1980)
Structures can show the parent of a compound that is named as a salt. Where two headings read alike, the source gives them in different places.

Experiments:
[1] = tested on: apomorphine induced hyperactivity; assay: Block of apomorphine-induced hyperactivity in rats (number of animals displaying hyperactivity); type: in vivo, Male Sprague-Dawley rats; details: for ED50: Rattus norvegicus, 1 h
Description: Male Sprague-Dawley rats weighing 225-275 g were used. […] The compounds were injected 60 minutes prior to apomorphine hydrochloride (1 mg/kg) which was injected subcutaneously into the neck.
Directly after injection, the animals were placed in the cages, one in each cage. Scoring of the stereotypies were performed by two separate methods. The first scoring system was a modified version of the system introduced by Costall and Naylor (1973). The strength of the stereotypy was scored on a 0-3 scale as follows:
In the second system the number of animals displaying hyperactivity caused by apomorphine were scored. […] Saline controls were always run simultaneously. ED50 's are in the first scoring system (0-3 scale), the doses which reduce the strength of the stereotypies by 50% over the observation period of 60 minutes. ED50 's of the second scoring system are the doses which reduce the number of animals showing hyperactivity by 50% over the observation period of 60 minutes.

[2] = tested on: apomorphine induced stereotypies; assay: Block of apomorphine-induced stereotypies in rats (0-3 scale scoring); type: in vivo, Male Sprague-Dawley rats; details: for ED50: Rattus norvegicus, 1 h; for Stereotypies ED50: rat, hydrochloride, 60 min
Description: Male Sprague-Dawley rats weighing 225-275 g were used. […] The compounds were injected 60 minutes prior to apomorphine hydrochloride (1 mg/kg) which was injected subcutaneously into the neck. […] Directly after injection, the animals were placed in the cages, one in each cage. Scoring of the stereotypies were performed by two separate methods. The first scoring system was a modified version of the system introduced by Costall and Naylor (1973). […] Chewing, biting and | licking. In the second system the number of animals displaying hyperactivity caused by apomorphine were scored. […] Saline controls were always run simultaneously.

[3] = in vivo; cited from earlier work
[4] = experimental animals; cited from earlier work
[5] = tested on: DA receptors in the brain; assay: Apomorphine antagonism in rats (stereotypies and hyperactivity together, results in words); type: in vivo, Male Sprague-Dawley rats; details: rat, p.o., Table 3
[6] = ip, i.p., 60 min before apomorphine hydrochloride 1 mg/kg s.c., 60 min observation, read-out: Hyperactivity ED50
[7] = po, p.o., same test system, read-out: Hypractivity ED50
[8] = po, p.o., same test system, read-out: Hypractivity ED50 (in parentheses, mg/kg)
[9] = ip, i.p., 60 min before apomorphine hydrochloride 1 mg/kg s.c., 60 min observation, read-out: Stereotypies ED50
[10] = po, p.o., same test system, read-out: Stereotypies ED50
[11] = po, p.o., same test system, read-out: Stereotypies ED50 (in parentheses, mg/kg)
[12] = i.p., 60 min before apomorphine hydrochloride 1 mg/kg s.c., 60 min observation

Row | Compound | ED50 [1, 6] | ED50 [1, 7] | ED50 [1, 8] | ED50 [2, 9] | ED50 [2, 10] | ED50 [2, 11] | also measured
1 | CCN1CCCC1CNC(=O)c1c(OC)ccc(Br)c1OC.Cl (racemic) [Example 7, N-Ethyl-2-(3-bromo-2,6-dimethoxybenzamidomethyl)pyrrolidine hydrochloride] | 11 µmol/kg | 17 µmol/kg | 7 mg/kg | 23 µmol/kg | 47 µmol/kg | 19 mg/kg | 
2 | CCN1CCCC1CNC(=O)c1c(OC)ccc(Cl)c1OC (racemic) [Example 8, N-Ethyl-2-(3-chloro-2,6-dimethoxybenzamidomethyl)pyrrolidine hydrochloride] | 30 µmol/kg |  |  | 47 µmol/kg |  |  | 
3 | CCN1CCCC1CNC(=O)c1c(OC)c(Br)cc(Br)c1OC.Cl (racemic) [Example 9, N-Ethyl-2-(3,5-dibromo-2,6-dimethoxybenzamidomethyl) pyrrolidine hydrochloride] | 1.8 µmol/kg | 5.5 µmol/kg | 2.7 mg/kg | 5.3 µmol/kg | 8.2 µmol/kg | 4 mg/kg | 
4 | CCN1CCCC1CNC(=O)c1c(OC)c(Cl)cc(Cl)c1OC (racemic) [Example 10, N-Ethyl-2-(3,5-dichloro-2,6-dimethoxybenzamidomethyl) pyrrolidine] | 3 µmol/kg |  |  | 5.8 µmol/kg |  |  | 
5 | CCN1CCCC1CNC(=O)c1c(OC)c(Cl)cc(Br)c1OC (racemic) [Example 11, N-Ethyl-2-(3-bromo-5-chloro-2,6-dimethoxybenzamidomethyl) pyrrolidine] | 3.9 µmol/kg |  |  | 6.2 µmol/kg |  |  | 
6 | CCN1CCCC1CNC(=O)c1c(OC)c(Br)cc(Br)c1OC (single isomer, unassigned) [Example 12, N-Ethyl-2-(3,5-dibromo-2,6-dimethoxybenzamidomethyl) pyrrolidine] | ~11 µmol/kg |  |  | > 178 µmol/kg |  |  | 
7 | CCN1CCCC1CNC(=O)c1c(OC)c(Br)cc(Br)c1OC (single isomer, unassigned) [Example 13, N-Ethyl-2-(3,5-dibromo-2,6-dimethoxybenzamidomethyl) pyrrolidine hydrochloride] | 0.33 µmol/kg |  |  | 3.3 µmol/kg |  |  | 
8 | CCN1CCCC1CNC(=O)c1c(OC)ccc(Br)c1OC.Cl (single isomer, unassigned) [Example 14, N-Ethyl-2-(3-bromo-2,6-dimethoxybenzamidomethyl) pyrrolidine hydrochloride] |  |  |  |  |  |  | Stereotypies ED50 [2, 12]: 5.6 µmol/kg
9 | CCN1CCCC1CNC(=O)c1c(OC)ccc(Br)c1OC.Cl (single isomer, unassigned) [Example 15, N-Ethyl-2-(3-bromo-2,6-dimethoxybenzamidomethyl) pyrrolidine hydrochloride] |  |  |  |  |  |  | Hyperactivity ED50 ([1]; rat, i.p., 60 min before apomorphine hydrochloride 1 mg/kg s.c., 60 min observation, hydrochloride, 60 min): ~ 123 μmol/kg; Stereotypies ED50 [2, 12]: > 196 µmol/kg
10 | CCN1CCCC1CNC(=O)c1cc(S(N)(=O)=O)ccc1OC (stereo not shown) [Sulpiride, reference compound] | 50 µmol/kg | > 586 µmol/kg | > 200 mg/kg | 293 µmol/kg | > 586 µmol/kg | > 200 mg/kg | extrapyramidal side effects [3]: weak extrapyramidal side effects; catalepsy [4]: weak catalepsy; activity after oral administration [5]: lost all activity
